Source: patent US20130244999A1, “Substituted Heterocyclic Compounds” (Incyte Corporation, priority 2008, published 2013)

Molecular target: T1, histamine H4 receptor (Homo sapiens, UniProt Q9H3N8)
T1 construct: expressed in transfected cells; host or cells: HEK293SFM cells (membrane preparation)
Experiment: Inhibition of histamine H4 receptor (Table A1; H4 membrane binding assay)
Details: for IC50: histamine H4 receptor, "> a" = exceeds experiment limit
Summary of the method: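 Membranes came from recombinant HEK293SFM cells expressing human H4, homogenized in 50 mM Tris-HCl pH 7.5 with protease inhibitors. Nonspecific binding was set with 1000× unlabeled ligand. Bound radioligand was separated on PEI-treated GF/B filters and counted by liquid scintillation.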

T1 sequence (Q9H3N8 whole entry): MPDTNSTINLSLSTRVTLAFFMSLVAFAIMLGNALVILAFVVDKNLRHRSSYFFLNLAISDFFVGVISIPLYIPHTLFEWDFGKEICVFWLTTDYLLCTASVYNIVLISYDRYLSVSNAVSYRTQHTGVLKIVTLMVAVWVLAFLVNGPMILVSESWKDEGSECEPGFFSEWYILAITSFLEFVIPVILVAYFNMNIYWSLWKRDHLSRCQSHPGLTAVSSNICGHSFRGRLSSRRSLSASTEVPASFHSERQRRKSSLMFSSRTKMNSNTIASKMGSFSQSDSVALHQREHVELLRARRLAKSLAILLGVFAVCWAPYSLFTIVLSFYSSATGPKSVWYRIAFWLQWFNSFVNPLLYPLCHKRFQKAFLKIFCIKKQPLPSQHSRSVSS

Row | SMILES | IC50 [nM] | inhibition at 1 µM [%]
1 | CNC(=O)Cn1cc(-c2ccc3c(c2)CN(c2cc(N4CCN(C)CC4)nc(N)n2)C(C)C3)cn1 (centres unmarked) [Example 79, 2-(4-{2-[2-Amino-6-(4-methylpiperazin-1-yl)pyrimidin-4-yl]-3-methyl-1,2,3,4-tetrahydroisoquinolin-7-yl}-1H-pyrazol-1-yl)-N-methylacetamide] | 108 | –
2 | CC1Cc2ccc(-c3ccc(C(=O)N4CCC4)nc3)cc2CN1c1cc(N2CCN(C)CC2)nc(N)n1 (single isomer, unassigned) [Example 53B, 4-[7-[6-(azetidin-1-ylcarbonyl)pyridin-3-yl]-3-methyl-3,4-dihydroisoquinolin-2(1H)-yl]-6-(4-methylpiperazin-1-yl)pyrimidin-2-amine] | 176 | –
3 | CN1CCN(c2cc(N3CCc4ccc(-c5cnc(Cl)c(F)c5)cc4C3)nc(N)n2)CC1 [Example 6, 4-[7-(6-Chloro-5-fluoropyridin-3-yl)-3,4-dihydroisoquinolin-2(1H)-yl]-6-(4-methylpiperazin-1-yl)pyrimidin-2-amine] | 61 | –
4 | CC1Cc2ccc(-c3ccc(C(=O)N(C)CCN(C)C)nc3)cc2CN1c1cc(N2CCN(C)CC2)nc(N)n1 (single isomer, unassigned) [Example 52A, 5-{2-[2-amino-6-(4-methylpiperazin-1-yl)pyrimidin-4-yl]-3-methyl-1,2,3,4-tetrahydroisoquinolin-7-yl}-N-[2-(dimethylamino)ethyl]-N-methylpyridine-2-carboxoynide] | 46 | –
5 | CC1Cc2ccc(-c3ccn(CC#N)n3)cc2CN1c1cc(N2CCN(C)CC2)nc(N)n1 (single isomer, unassigned) [Example 82B, (3-{2-[2-Amino-6-(4-methylpiperazin-1-yl)pyrimidin-4-yl]-3-methyl-1,2,3,4-tetrahydroisoquinolin-7-yl}-1H-pyrazol-1-yl)acetonitrile] | – | 66
6 | CC1Cc2ccc(-c3ccc(C(=O)N4CC[C@H](F)C4)nc3)cc2CN1c1cc(N2CCN(C)CC2)nc(N)n1 (single isomer, unassigned) [Example 154A] | 85 | –
7 | CC1Cc2ccc(-c3cnn(C4CCOC4)c3)cc2CN1c1cc(N2CCN(C)CC2)nc(N)n1 (single isomer, unassigned) [Example 108, 4-(4-Methylpiperazin-1-yl)-6-[3-methyl-7-[1-(tetrahydrofuran-3-yl)-1H-pyrazol-4-yl]-3,4-dihydroisoquinolin-2(1H)-yl]pyrimidin-2-amine] | 46 | –
8 | CC1Cc2ccc(-c3ccn(CCO)n3)cc2CN1c1cc(N2CCN(C)CC2)nc(N)n1 (single isomer, unassigned) [Example 84A, 2-(3-{2-[2-Amino-6-(4-methylpiperazin-1-yl)pyrimidin-4-yl]-3-methyl-1,2,3,4-tetrahydroisoquinolin-7-yl}-1H-pyrazol-1-yl)ethanol] | 30 | –
9 | CC1Cc2ccc(-c3cc(C(=O)N4CCC4)n(C)c3)cc2CN1c1cc(N2CCN(C)CC2)nc(N)n1 (single isomer, unassigned) [Example 92B, 4-[7-[5-(azetidin-1-ylcarbonyl)-1-methyl-1H-pyrrol-3-yl]-3-methyl-3,4-dihydroisoquinolin-2(1H)-yl]-6-(4-methylpiperazin-1-yl)pyrimidin-2-amine] | 127 | –
10 | CN[C@@H]1CCN(c2cc(N3Cc4cc(-c5cnn(C)c5)ccc4CC3C)nc(N)n2)C1 (stereo partly drawn) [Example 124, 4-[(3R)-3-(Methylamino)pyrrolidin-1-yl]-6-[3-methyl-7-(1-methyl-1H-pyrazol-4-yl)-3,4-dihydroisoquinolin-2(1H)-yl]pyrimidin-2-amine] | 121 | –
11 | CC1Cc2ccc(-c3cnn(CCC#N)c3)cc2CN1c1cc(N2CCN(C)CC2)nc(N)n1 (single isomer, unassigned) [Example 96A, 3-(4-{2-[2-amino-6-(4-methylpiperazin-1-yl)pyrimidin-4-yl]-3-methyl-1,2,3,4-tetrahydroisoquinolin-7-yl}-1H-pyrazol-1-yl)propanenitrile] | 26 | –
12 | CC1Cc2ccc(-c3cnc(C(=O)N4CC(O)C4)nc3)cc2CN1c1cc(N2CCN(C)CC2)nc(N)n1 (single isomer, unassigned) [Example 78, 1-[(5-{2-[2-Amino-6-(4-methylpiperazin-1-yl)pyrimidin-4-yl]-3-methyl-1,2,3,4-tetrahydroisoquinolin-7-yl}pyrimidin-2-yl)carbonyl]azetidin-3-ol] | 135 | –
13 | CNC(=O)c1cc(-c2ccc3c(c2)CN(c2cc(N4CCN(C)CC4)nc(N)n2)C(C)C3)cn1C (single isomer, unassigned) [Example 87A, 4-{2-[2-Amino-6-(4-methylpiperazin-1-yl)pyrimidin-4-yl]-3-methyl-1,2,3,4-tetrahydroisoquinolin-7-yl}-N,1-dimethyl-1H-pyrrole-2-carboxamide] | 26 | –
14 | CC1Cc2ccc(-c3cnn(CC(=O)N(C)C)c3)cc2CN1c1cc(N2CCN(C)CC2)nc(N)n1 (centres unmarked) [Example 80, 2-(4-{2-[2-Amino-6-(4-methylpiperazin-1-yl)pyrimidin-4-yl]-3-methyl-1,2,3,4-tetrahydroisoquinolin-7-yl}-1H-pyrazol-1-yl)-N,N-dimethylacetamide] | 106 | –
15 | CC1Cc2ccc(-c3cnn(C4CCOCC4)c3)cc2CN1c1cc(N2CCN(C)CC2)nc(N)n1 (single isomer, unassigned) [Example 95A, 4-(4-methylpiperazin-1-yl)-6-[3-methyl-7-[1-(tetrahydro-2H-pyran-4-yl)-1H-pyrazol-4-yl]-3,4-dihydroisoquinolin-2(1H)-yl]pyrimidin-2-amine] | 35 | –
16 | CN1CCN(c2cc(N3CCc4ccc(-c5cnn(C6CCNCC6)c5)cc4C3)nc(N)n2)CC1 [Example 13, 4-(4-Methylpiperazin-1-yl)-6-[7-(1-piperidin-4-yl-1H-pyrazol-4-yl)-3,4-dihydroisoquinolin-2 (1H)-yl]pyrimidin-2-amine] | 35 | –
17 | CC1Cc2ccc(-c3cccc(C(=O)N(C)C)n3)cc2CN1c1cc(N2CCN(C)CC2)nc(N)n1 (single isomer, unassigned) [Example 76, 6-{2-[2-Amino-6-(4-methylpiperazin-1-yl)pyrimidin-4-yl]-3-methyl-1,2,3,4-tetrahydroisoquinolin-7-yl}-N,N-dimethylpyridine-2-carboxamide] | – | 66
18 | CCNC(=O)c1cc(-c2ccc3c(c2)CN(c2cc(N4CCN(C)CC4)nc(N)n2)C(C)C3)cn1C (single isomer, unassigned) [Example 88A, 4-{2-[2-Amino-6-(4-methylpiperazin-1-yl)pyrimidin-4-yl]-3-methyl-1,2,3,4-tetrahydroisoquinolin-7-yl}-N-ethyl-1-methyl-1H-pyrrole-2-carboxamide] | 25 | –
19 | CN1CCN(c2cc(N3CCc4ccc(-c5ccn(C)c(=O)c5)cc4C3)nc(N)n2)CC1 [Example 43, 4-{2-[2-Amino-6-(4-methylpiperazin-1-yl)pyrimidin-4-yl]-1,2,3,4-tetrahydroisoquinolin-7-yl}-1-methylpyridin-2(1H)-one] | 99 | –
20 | CC1Cc2ccc(-c3ccnc(C(=O)N4CCCC4)c3)cc2CN1c1cc(N2CCN(C)CC2)nc(N)n1 (single isomer, unassigned) [Example 64B, 4-(4-methylpiperazin-1-yl)-6-[3-methyl-7-[2-(pyrrolidin-1-ylcarbonyl)pyridin-4-yl]-3,4-dihydroisoquinolin-2(1H)-yl]pyrimidin-2-amine] | 86 | –
